Here are results for 28 molecules from ChEMBL document CHEMBL2413024, “Design and synthesis of pyrido[3,2-α]carbazole derivatives and their analogues as potent antitumour agents” (Eur J Med Chem, 2013).

Each structure is given as a SMILES string.

The test system of data set [1] is HT-29. The data set is described as follows: Antitumor activity against human HT-29 cells after 72 hrs by sulforhodamine B assay. It counts as functional, cell-based. The settings on record: HT-29, 72 h. For orientation: Sulforhodamine B stains cellular protein and so reports cell mass.
Data set [2] deals with A549. The data set is described as follows: Antitumor activity against human A549 cells after 72 hrs by sulforhodamine B assay. It is filed as functional, cell-based. The note with it: A549, 72 h.
For data set [3], the system named is HT-29. The data set is described as follows: Ratio of R16 IC50 to compound IC50 for human HT-29 cells. It is filed as functional.
Data set [4] concerns A549. The data set is described as follows: Ratio of R16 IC50 to compound IC50 for human A549 cells. It counts as functional.
Data set [5] in a line: Aqueous solubility of the compound in pure water at 25 degC. It counts as physicochemical.

One may read the IC50 as the concentration that inhibits the measured activity by half. A high value points to weaker potency. On to `Cn1c2ccccc2c2cc(C(=O)NCCCN3CCCC3)c3ncccc3c21`, for which the values for the half-inhibitory concentration (IC50) in the data set with HT-29 [1] and in the data set on A549 [2] were 1060 nM and 870 nM, respectively.
The matching figures for `Cn1c2ccccc2c2cc(C(=O)NCCO)c3ncccc3c21`: 4450 nM and 3060 nM.
For `CNCCNC(=O)c1cc2c3ccccc3n(C)c2c2cccnc12`, the half-maximal inhibitory concentration (IC50) came to 1460 nM in the data set with HT-29 [1] and 1370 nM in the data set on A549 [2].
On the same counts, the results for `CN(C)CCNC(=O)c1cc2c3ccccc3n(C)c2c2cccnc12` are 470 nM and 390 nM.
Take `CN(C)CCCNC(=O)c1cc2c3ccccc3oc2c2cccnc12`: the results for the IC50 in the data set with HT-29 [1] and with A549 [2] were 2060 nM and 2230 nM, respectively.
The matching figures for `Cn1c2ccccc2c2cc(C(=O)NCCN3CCCCC3)c3ncccc3c21`: 1300 nM and 820 nM.
The matching figures for `CN(C)CCNC(=O)c1cc2c3ccccc3[nH]c2c2cccnc12`: 830 nM and 690 nM.
On the same counts, the results for `CN(C)CCNC(=O)c1cc2c3cccnc3n(C)c2c2cccnc12` are 180 nM and 160 nM.
For the molecule `Cn1c2ccccc2c2cc(C(=O)NCCN3CCOCC3)c3ncccc3c21`, the half-inhibitory concentration (IC50) in the data set on HT-29 [1] was 2240 nM; in the data set on A549 [2] it was 1180 nM.
The matching figures for `CN(C)CCCNC(=O)c1cc2c3ccccc3[nH]c2c2cccnc12`: 1390 nM and 770 nM.
Take `CN(C)CCNC(=O)c1cc2c3ccncc3n(C)c2c2cccnc12`: the 50% inhibitory concentration (IC50) in the data set with HT-29 [1] and with A549 [2] was 130 nM each time.
On to `CN(C)CCNC(=O)c1cc2c3cc(F)ccc3n(C)c2c2cccnc12`, for which the IC50 in the data set with HT-29 [1] worked out at 160 nM; in the data set on A549 [2], 170 nM.
The matching figures for `Cn1c2ccccc2c2cc(C(=O)NCCCN3CCOCC3)c3ncccc3c21`: 1410 nM and 710 nM.
On the same counts, the results for `CN(C)CCCNC(=O)c1cc2c3ccccc3sc2c2cccnc12` are 1160 nM and 600 nM.
On to `CN(C)CCCNC(=O)c1cc2c3ccccc3n(C)c2c2cccnc12`, for which the IC50 came to 850 nM in the data set with HT-29 [1] and 560 nM with A549 [2].
In the case of `CN(C)CCNC(=O)c1cc2c3cc(O)ccc3n(C)c2c2cccnc12`, the “Ratio IC50” value in the data set on HT-29 [3] is reported as 10; in the data set with A549 [4], 7. Besides, the values for the 50% inhibitory concentration (IC50) with HT-29 [1] and in the data set with A549 [2] were 110 nM and 70 nM, respectively.
Regarding `CN(C)CCNC(=O)c1cc2c3ccccc3sc2c2cccnc12`, the half-maximal inhibitory concentration (IC50) worked out at 600 nM in the data set with HT-29 [1] and 270 nM in the data set with A549 [2].
As to `COc1ccc2c(c1)c1cc(C(=O)NCCN(C)C)c3ncccc3c1n2C`, the IC50 in the data set with HT-29 [1] was 200 nM; with A549 [2] it was 220 nM.
For orientation: solubility means the dissolved amount per volume that the medium holds. As for `CN(C)CCNC(=O)c1cc2c3cc(O)ccc3n(C)c2c2cccnc12.Cl`, the concentration in solution in data set [5] (solubility) came to 22.4 mg/mL.
`CN(C)CCN1C(=O)c2cccc3c2c(cc2c4ccccc4sc32)C1=O`: the half-inhibitory concentration (IC50) worked out at 1090 nM in the data set with HT-29 [1] and 200 nM with A549 [2].
On the same counts, the results for `CN(C)CCNC(=O)c1cc2c3cnccc3n(C)c2c2cccnc12` are 150 nM and 160 nM.
`CN(C)CCNC(=O)c1cc2c3ncccc3n(C)c2c2cccnc12`: the half-inhibitory concentration (IC50) in the data set with HT-29 [1] stood at 220 nM; in the data set with A549 [2] it was 360 nM.
On the same counts, the results for `Cn1c2ccccc2c2cc(C(=O)NCCN3CCCC3)c3ncccc3c21` are 630 nM and 270 nM.
On the same counts, the results for `CN(C)CCNC(=O)c1cc2c3ccccc3oc2c2cccnc12` are 2270 nM and 1890 nM.
On the same counts, the results for `CN(C)CCNC(=O)c1cc2c3cc(Cl)ccc3n(C)c2c2cccnc12` are 230 nM and 260 nM.
As for `Cn1c2ccccc2c2cc(C(=O)NCCN3CCNCC3)c3ncccc3c21`, the IC50 in the data set on HT-29 [1] is 1250 nM; in the data set on A549 [2], 780 nM.
Turning to `Cn1c2ccccc2c2cc(C(=O)NCCN)c3ncccc3c21`, the IC50 in the data set on HT-29 [1] is 2470 nM; in the data set on A549 [2], 2110 nM.
Consider `CN1CCN(CCNC(=O)c2cc3c4ccccc4n(C)c3c3cccnc23)CC1`, for which the IC50 with HT-29 [1] amounted to 1240 nM; with A549 [2] it was 890 nM.
